Ends that are not written are not given here.
Target: T1, HIV six-helix bundle of gp41 (IQN36 / C34) (Human immunodeficiency virus type 1 group M subtype B, UniProt P04578)
T1 construct: made in house; host or cells: chemical peptide synthesis, no expression host
Experiment: HIV-FRET IQN36/C34 homogeneous time resolved fluorescence test system (6-helix bundle formation)
Assay type: binding, Human Immunodeficiency Virus (HIV-1)
Protocol: All reagents were dissolved in 100 mM Hepes buffer pH 7.2. Test compounds were serially diluted and then added to 384-well plates. A final concentration of 10 nM S-APC and 100 nM IQN36-biotin were mixed in tubes, incubated for 30 min at room temperature and then added to well containing test compound. The compound/S-APC/IQN36-biotin mixture was incubated for another 2 hours at room temperature.

| Compound | IC50 [nM] |
| --- | --- |
| COC(=O)c1cc(Cc2cc(Cc3ccc(NS(=O)(=O)c4ccc(C)cc4)c(C(=O)O)c3)cc(C(=O)O)c2NS(=O)(=O)c2ccc(C)cc2)ccc1NS(=O)(=O)c1ccc(C)cc1 [Compound 1] | 3270 |
| Cc1ccc(S(=O)(=O)Nc2ccc(Oc3ccc(NS(=O)(=O)c4ccc(C)cc4)c(C(=O)O)c3)cc2OCc2ccccc2)cc1 [Compound 2, 5-[3-Benzyloxy-4-(toluene-4-sulfonylamino)-phenoxy]-2-(toluene-4-sulfonylamino)-benzoic acid] | 2720 |
| Cc1ccc(S(=O)(=O)Nc2ccc(Oc3ccc4c(c3)CCCN4S(=O)(=O)c3ccc(C)cc3)cc2C(=O)O)cc1 [Compound 3, 2-(4-methylphenylsulfonamino)-5-[1-(toluene-4-sulfonyl)-1,2,3,4-tetrahydro-quinolin-6-yloxy]-benzoic acid] | 2880 |
| CCCCCCN(c1ccc(Oc2ccc(NS(=O)(=O)c3ccc(C)cc3)c(C(=O)O)c2)cc1)S(=O)(=O)c1ccc(C)cc1 [Compound 4, 5-{4-[Hexyl-(toluene-4-sulfonyl)-amino]-phenoxy}-2-(4-methylphenylsulfonamino)-benzoic acid] | 4450 |
| CCCCCOc1cc(Oc2ccc(NS(=O)(=O)c3ccc(C)cc3)c(C(=O)O)c2)ccc1NS(=O)(=O)c1ccc(C)cc1 [Compound 5, 5-[3-pentyloxy-4-(toluene-4-sulfonylamino)-phenoxy]-2-(toluene-4-sulfonylamino)-benzoic acid] | 3480 |
| Cc1ccc(S(=O)(=O)Nc2ccc(Oc3ccc(NS(=O)(=O)c4ccc(C)cc4)c(-c4ccccc4)c3)cc2C(=O)O)cc1 [Compound 6, 2-(Toluene-4-sulfonylamino)-5-[6-(toluene-4-sulfonylamino)-biphenyl-3-yloxy]-benzoic acid] | 3160 |
| Cc1ccc(S(=O)(=O)Nc2ccc(Oc3ccc(NS(=O)(=O)c4ccc(C)cc4)c(C(=O)O)c3)cc2OCC(C)C)cc1 [Compound 7, 5-[3-Isobutoxy-4-(toluene-4-sulfonylamino)-phenoxy]-2-(toluene-4-sulfonylamino)-benzoic acid] | 3270 |
| Cc1ccc(S(=O)(=O)Nc2ccc(Oc3ccc(NS(=O)(=O)c4ccc(C)cc4)c(C(=O)O)c3)cc2NCc2ccccc2)cc1 [Compound 8, 5-[3-Benzylamino-4-(toluene-4-sulfonylamino)-phenoxy]-2-(toluene-4-sulfonylamino)-benzoic acid] | 2270 |
| CCCCNc1cc(Oc2ccc(NS(=O)(=O)c3ccc(C)cc3)c(C(=O)O)c2)ccc1NS(=O)(=O)c1ccc(C)cc1 [Compound 9, 5-[3-Butylamino-4-(toluene-4-sulfonylamino)-phenoxy]-2-(toluene-4-sulfonylamino)-benzoic acid] | 1810 |
| Cc1ccc(S(=O)(=O)Nc2ccc(Oc3ccc(NS(=O)(=O)c4ccc(C)cc4)c(N(C)Cc4ccccc4)c3)cc2C(=O)O)cc1 [Compound 10, 5-[3-(Benzyl-methyl-amino)-4-(toluene-4-sulfonylamino)-phenoxy]-2-(toluene-4-sulfonylamino)-benzoic acid] | 2640 |
| CCNc1cc(Oc2ccc(NS(=O)(=O)c3ccc(C)cc3)c(C(=O)O)c2)ccc1NS(=O)(=O)c1ccc(C)cc1 [Compound 11, 5-[3-Ethylamino-4-(toluene-4-sulfonylamino)-phenoxy]-2-(toluene-4-sulfonylamino)-benzoic acid] | 2470 |
| Cc1ccc(S(=O)(=O)Nc2ccc(Oc3ccc(NS(=O)(=O)c4ccc(C)cc4)c(C(=O)O)c3)cc2Cc2ccccc2)cc1 [Compound 12, 5-[3-Benzyl-4-(toluene-4-sulfonylamino)-phenoxy]-2-(toluene-4-sulfonylamino)-benzoic acid] | 2090 |
| CNc1cc(Oc2ccc(NS(=O)(=O)c3ccc(C)cc3)c(C(=O)O)c2)ccc1NS(=O)(=O)c1ccc(C)cc1 [Compound 13, 5-[3-Methylamino-4-(toluene-4-sulfonylamino)-phenoxy]-2-(toluene-4-sulfonylamino)-benzoic acid] | 2690 |
| NFYDPLVFPSDEFDASISQVNEKINQSLAFIRKSDELLHNVNAGK [Compound C45, reference compound] | > 10000 |

From patent publication US20100280268A1, “H[…] RESOLVED FL[…] TEST SYSTEM” (priority 2006, published 2010)
